Reference: ChEMBL document CHEMBL1129561 (J Med Chem, 1996)

Columns and labels:
Glucocorticoid receptor = biological target: T1, Glucocorticoid receptor (Homo sapiens, UniProt P04150)
T1 sequence (P04150 whole entry): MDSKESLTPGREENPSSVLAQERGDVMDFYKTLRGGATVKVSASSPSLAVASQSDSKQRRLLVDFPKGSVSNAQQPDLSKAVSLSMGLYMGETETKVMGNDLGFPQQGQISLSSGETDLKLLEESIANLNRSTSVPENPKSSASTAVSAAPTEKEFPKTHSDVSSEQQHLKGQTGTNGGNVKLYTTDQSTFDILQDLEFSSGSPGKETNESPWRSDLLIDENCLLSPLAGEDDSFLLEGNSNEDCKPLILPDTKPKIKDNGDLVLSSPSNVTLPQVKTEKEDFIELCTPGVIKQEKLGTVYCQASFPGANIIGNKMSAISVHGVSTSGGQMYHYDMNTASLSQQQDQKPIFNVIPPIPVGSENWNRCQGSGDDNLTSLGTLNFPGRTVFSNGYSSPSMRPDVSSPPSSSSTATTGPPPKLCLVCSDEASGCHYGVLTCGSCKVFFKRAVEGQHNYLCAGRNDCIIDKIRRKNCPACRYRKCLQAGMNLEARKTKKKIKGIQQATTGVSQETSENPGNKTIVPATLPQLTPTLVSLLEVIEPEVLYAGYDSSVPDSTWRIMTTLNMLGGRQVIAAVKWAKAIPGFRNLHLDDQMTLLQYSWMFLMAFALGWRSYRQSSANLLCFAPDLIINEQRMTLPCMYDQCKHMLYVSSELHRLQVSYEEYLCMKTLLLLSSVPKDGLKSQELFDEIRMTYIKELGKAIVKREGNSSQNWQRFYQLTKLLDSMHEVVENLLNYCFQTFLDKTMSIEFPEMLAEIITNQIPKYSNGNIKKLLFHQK
Description: Binding affinity was determined for human glucocorticoid receptor(hGR).

[1] = biological target: T2, Mineralocorticoid receptor (Homo sapiens, UniProt P08235)
T2 sequence (P08235 whole entry): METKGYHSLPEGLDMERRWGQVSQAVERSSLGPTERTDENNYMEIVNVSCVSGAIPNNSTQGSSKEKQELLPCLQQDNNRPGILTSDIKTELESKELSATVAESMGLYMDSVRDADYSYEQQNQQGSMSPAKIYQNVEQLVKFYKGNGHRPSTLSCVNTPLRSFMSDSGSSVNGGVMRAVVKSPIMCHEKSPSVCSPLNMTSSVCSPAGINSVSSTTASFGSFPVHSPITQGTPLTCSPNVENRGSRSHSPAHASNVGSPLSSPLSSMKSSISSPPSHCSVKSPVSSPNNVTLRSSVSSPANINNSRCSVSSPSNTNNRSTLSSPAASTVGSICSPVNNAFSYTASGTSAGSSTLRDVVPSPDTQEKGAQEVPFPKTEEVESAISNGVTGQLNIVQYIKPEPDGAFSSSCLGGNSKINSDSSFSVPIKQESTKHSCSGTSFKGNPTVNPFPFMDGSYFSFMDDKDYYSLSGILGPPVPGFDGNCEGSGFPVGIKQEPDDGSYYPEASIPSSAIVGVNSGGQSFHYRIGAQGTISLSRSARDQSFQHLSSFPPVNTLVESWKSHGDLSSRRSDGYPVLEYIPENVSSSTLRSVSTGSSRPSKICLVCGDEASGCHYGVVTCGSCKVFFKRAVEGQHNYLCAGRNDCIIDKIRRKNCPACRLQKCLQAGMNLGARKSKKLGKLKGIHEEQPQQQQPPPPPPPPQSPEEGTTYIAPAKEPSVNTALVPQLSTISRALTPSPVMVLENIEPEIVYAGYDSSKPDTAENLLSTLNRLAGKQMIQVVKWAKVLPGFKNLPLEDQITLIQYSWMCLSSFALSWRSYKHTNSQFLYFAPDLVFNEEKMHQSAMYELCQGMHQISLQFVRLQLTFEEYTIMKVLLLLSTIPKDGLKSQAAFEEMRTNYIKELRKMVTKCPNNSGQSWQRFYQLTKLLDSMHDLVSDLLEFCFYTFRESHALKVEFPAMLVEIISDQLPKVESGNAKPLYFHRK
Description: Inhibitory activity against human mineralocorticoid receptor (hMR)

[2] = biological target: T3, Progesterone receptor (Homo sapiens) (UniProt P06401); settings: CV-1
T3 sequence (whole entry): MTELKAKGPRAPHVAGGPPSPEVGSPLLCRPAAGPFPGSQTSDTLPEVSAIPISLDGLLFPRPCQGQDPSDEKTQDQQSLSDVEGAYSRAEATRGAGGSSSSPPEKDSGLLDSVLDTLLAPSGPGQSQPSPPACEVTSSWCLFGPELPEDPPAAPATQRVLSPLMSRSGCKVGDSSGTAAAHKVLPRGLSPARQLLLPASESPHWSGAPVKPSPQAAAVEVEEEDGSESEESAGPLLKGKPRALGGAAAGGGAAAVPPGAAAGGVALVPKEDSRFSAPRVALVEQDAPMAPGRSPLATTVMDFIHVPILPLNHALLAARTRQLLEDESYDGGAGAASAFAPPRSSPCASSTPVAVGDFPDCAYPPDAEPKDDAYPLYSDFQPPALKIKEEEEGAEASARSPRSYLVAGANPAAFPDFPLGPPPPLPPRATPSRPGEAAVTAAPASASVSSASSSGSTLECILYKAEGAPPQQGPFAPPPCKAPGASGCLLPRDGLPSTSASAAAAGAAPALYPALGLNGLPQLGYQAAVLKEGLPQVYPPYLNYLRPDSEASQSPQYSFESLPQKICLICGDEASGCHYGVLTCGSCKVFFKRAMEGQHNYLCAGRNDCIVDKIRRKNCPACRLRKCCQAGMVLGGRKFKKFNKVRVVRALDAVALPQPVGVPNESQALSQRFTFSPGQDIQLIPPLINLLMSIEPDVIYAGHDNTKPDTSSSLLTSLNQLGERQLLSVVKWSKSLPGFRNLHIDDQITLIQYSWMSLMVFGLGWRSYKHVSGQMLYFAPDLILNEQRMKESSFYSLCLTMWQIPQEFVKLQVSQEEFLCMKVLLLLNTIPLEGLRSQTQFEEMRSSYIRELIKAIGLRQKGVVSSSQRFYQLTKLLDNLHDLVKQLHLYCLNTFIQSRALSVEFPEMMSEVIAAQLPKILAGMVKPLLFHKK

## C=C1C=C(C)CC(C)(C)C1Cc1ccc([N+](=O)[O-])cc1 (stereo not drawn)
Glucocorticoid receptor
  Ki: 5.42 µM
[1]
  IC50: > 10 µM
[2]
  Max inhibition: 90%
